Results taken from US11447535B2, “GLP-1 analogues” (Sun Pharmaceutical Industries Limited, priority 2018, dated 2022).
Marks after values point to notes of the source that are not given here.

What was measured:
[1] = system: SD rats; assay: Oral glucose tolerance test (OGTT) in rats; single injection; 1 mg/kg; type: in vivo; parameters: Change in AUC (mg/dL*min): unit not given here; settings: for Blood Glucose AUC (mg/dL*min) Mean / Change in AUC (mg/dL*min): 1 mg/Kg; for Blood Glucose AUC (mg/dL*min) Mean: Exp. 1; for Change in AUC (mg/dL*min): Exp. 1, vs control group
Procedure: (§1) Animals were divided into three groups—a normal control group, a test group and a third semaglutide group, with 4 animals in each group. The animals were fasted for 12 hours before initiation of OGTT. To the test group animals, the Compound 1 was injected subcutaneously at 1 mg/kg dose. To the semaglutide group, a dose of 1 mg/kg was injected subcutaneously. After 22 hrs, 166 hrs and 334 hrs of subcutaneous injection of test drug or semaglutide, blood glucose was measured with blood glucose meter (time 0 measurements). All the animals were then given 2 g/kg of glucose solution orally. Blood glucose was measured at 20, 40, 60, 90 and 120 minutes following glucose challenge. Body weight and food intake was recorded. Blood glucose data was analyzed using Two way ANOVA followed by Bonferroni posttests using PRISM (Graph Pad version 5.03). Data of Blood glucose AUC0-120 min, was analyzed using t test.
as §1, with “animals,” for “animals, the”, “1, Compound 13 and Compound 16 were” for “1 was”, “compound” for “drug”

[2] = Food intake and body weight recorded in the rat OGTT study; type: in vivo, rats; settings: for Body Weight Change (%) Mean / Food Consumption (g) Mean: Exp. 1
Procedure: as §1
as §1, with “animals,” for “animals, the”, “1, Compound 13 and Compound 16 were” for “1 was”, “compound” for “drug”

[3] = system: db/db type 2 diabetic mice; assay: Reduction of HbA1c in db/db type 2 diabetic mice after chronic treatment (27 day study); type: in vivo
Procedure: This study was done in diabetic mouse model. The animals were divided into three treatment groups—a diabetic control group, a test group and a semaglutide treatment group. Compound 1 of the present disclosure was injected subcutaneously at 0.3 mg/kg dose once a day for 3 days (qd*3) followed by 0.1 mg/kg dose every alternate day for 7 doses (q2d*7) followed by 0.1 mg/kg dose once every four days for two dose cycles (q4d*2). The same dosage regimen was administered in semaglutide treatment group. Measurements of blood glucose levels and body weight were done daily. % HbA1c was measured on Day 0, day 7, day 14 and day 27 by column chromatography. Cumulative food intake was calculated on day 27. % HbA1C data was analyzed by two way ANOVA followed by Bonferroni's posttests using PRISM (Graph Pad version 5.03).

[4] = system: db/db mice (diabetic mouse model); assay: Separate db/db diabetic mouse study, q2d*15 up to day 28, recovery period day 29 to day 45; type: in vivo
Procedure: The study was performed in similar manner as above on diabetic mouse model. The animals were divided into three treatment groups—a diabetic control group, a test group and a semaglutide treatment group. The representative compounds of the present disclosure, Compound 1, Compound 13 and Compound 16, were injected subcutaneously at 3.04 or 6.078 nM dose (every alternate day up to day 28 (q2d*15). The same dosage regimen was administered in semaglutide treatment group. Measurements of blood glucose levels and body weight were done daily. % HbA1c, Insulin was measured on Day 0, day 14 and day 29. Cumulative food intake and body weight change was calculated on day 14 and 29. % HbA1c, Insulin data was analyzed by two way ANOVA followed by Bonferroni's posttests using PRISM (Graph Pad version 5.03). Whereas Blood Glucose AUC, Body weight change and Cumulative food intake data was analyzed by one way ANOVA followed by Bonferroni's posttests using PRISM (Graph Pad version 5.03). From day 29 to day 45, animals were kept on recovery period during which no drug treatment was given. Blood Glucose and Body weight was measured during this period. On day 45, Body weight Changes, % HbA1c, Insulin was measured.

[5] = rats, 1 mg/kg s.c. single injection, Day 2
[6] = rats, 1 mg/kg s.c. single injection, Day 4
[7] = recovery period, earlier dose 6.078 nM
[8] = recovery study, day 45, earlier dose 6.078 nM (6.0788 nM given for Compound 13)

N-ε^26-[2-(2-[2-(2-[2-(2-[4-(17-Carboxyheptadecanoylamino)-4(S)carboxybutyrylamino]ethoxy) ethoxy]acetylamino)ethoxy]ethoxy)acetyl][(Aib^8, Arg^34, Leu^38 GLP-1(7-38) peptide (HXXXGTFTSDVSSYLXGQAAXEFXAWLVRGRGXX; C18 diacid-gGlu-OEG-OEG on Lys26; Aib8; (2)..(2) Xaa = Aib; (3)..(3) Xaa = absent.; (4)..(4) Xaa = Glu.; (16)..(16) Xaa = Glu.; (21)..(21) Lys is substituted; (24)..(24) Xaa is Ile.; (33)..(33) Xaa is Leu.; (34)..(34) Xaa is absent.) [Compound 1]
Blood Glucose AUC (mg/dL*min) Mean ([1]; OGTT, 22 hr): 3173.0 mg·min/dL | Change in AUC (mg/dL*min) ([1]; OGTT, 22 hr): −78.7 | Blood Glucose AUC (mg/dL*min) Mean ([1]; OGTT, 168 hr): 5941.0 mg·min/dL | Change in AUC (mg/dL*min) ([1]; OGTT, 168 hr): −65.4 | Blood Glucose AUC (mg/dL*min) Mean ([1]; OGTT, 336 hr): 11920.0 mg·min/dL | Change in AUC (mg/dL*min) ([1]; OGTT, 336 hr): −28.3 | blood glucose level vs normal control ([1]; OGTT, 22 hours after single dosing, 1 mg/kg s.c. (FIG. 6A)): statistically significant reduction in blood glucose level | glucose lowering effect vs semaglutide ([1]; OGTT, after 22 hrs, 1 mg/kg s.c. (FIG. 6A)): superior to the glucose lowering effect observed with semaglutide | glucose lowering effect vs semaglutide ([1]; OGTT, after 46 hours of subcutaneous administration (FIG. 6B)): superiority of glucose lowering effect | reduction in blood glucose AUC ([1]; after 168 hrs of injection, 1 mg/kg): about 60% | Body Weight Change (%) Mean ([2]; 1 mg/Kg, 48 h): −9.8% | Food Consumption (g) Mean ([2]; 1 mg/Kg, 48 h): 8.3 g | Body Weight Change (%) Mean ([2]; 1 mg/Kg, 154 h): 5.2% | Food Consumption (g) Mean ([2]; 1 mg/Kg, 154 h): 69.6 g | Body Weight Change (%) Mean ([2]; 1 mg/Kg, 324 h): 9.3% | Food Consumption (g) Mean ([2]; 1 mg/Kg, 324 h): 99.4 g | food consumed vs animals administered with semaglutide ([2]; 1 mg/Kg, text on Table 8): consumed significantly less food | Body Weight (Day 2) % Change vs Baseline [2, 5]: −9.33% | Body Weight (g) (Day 2) Mean [2, 5]: 365.6 g | Body Weight (Day 4) % Change vs Baseline [2, 6]: −7.5% | Body Weight (g) (Day 4) Mean [2, 6]: 436.2* g | Food Consumption (g) (day 0 to day 2) Mean ([2]; rats, 1 mg/kg s.c. single injection, day 0 to day 2): 2.63*** g | Food Consumption (g) (day 0 to day 4) Mean ([2]; rats, 1 mg/kg s.c. single injection, day 0 to day 4): 43.25***^,## g | cumulative food intake vs diabetic control group ([3]; db/db mice, 0 to 27th day (FIG. 8)): significant reduction in food intake | % HbA1c Mean ([3]; db/db mice, Day 0 (before treatment)): 4.87% | % HbA1c % Change vs DC ([3]; db/db mice, Day 27, vs Diabetic Control): −3.57% | % HbA1c Mean ([3]; db/db mice, Day 27, s.c. 0.3 mg/kg qd*3, 0.1 mg/kg q2d*7, 0.1 mg/kg q4d*2): 3.73***^## % | blood glucose levels vs diabetic control group ([3]; db/db mice, chronic treatment (FIG. 7)): statistically significant reduction in blood glucose levels | % change in body weight ([3]; db/db mice, day 0 to day 27 (FIG. 9)): −16% | blood glucose effect vs semaglutide treatment group ([3]; db/db mice, latter phase of the study (FIG. 7)): superior to semaglutide treatment group in latter phase of the study | HbA1c level after chronic treatment ([3]; db/db type 2 diabetic mice, 27 day study): statistically significant reduction in HbA1c level | Blood Glucose AUC (Day 0-29) % Change Vs Control ([4]; 6.078 nM, q2d*15): −45.75% | Blood Glucose AUC (Day 0-29) (mg/dL*days) Mean ([4]; 6.078 nM, q2d*15): 9194.6*** mg/dL*days | Body Weight Change Day 29, % Change vs Day 0 Mean ([4]; 6.078 nM, q2d*15): −0.3% | Cumulative Food Intake (g) Day 0-29 Mean ([4]; 6.078 nM, q2d*15): 79.8 g | % HbA1C Mean ([4]; Day 0, 6.078 nM, q2d*15): 7.8% | Insulin (ng/mL) Mean ([4]; Day 0, 6.078 nM, q2d*15): 18.0 ng/mL | % HbA1C Mean ([4]; Day 14, 6.078 nM, q2d*15): 6.4 ** % | Insulin (ng/mL) Mean ([4]; Day 14, 6.078 nM, q2d*15): 58.1** ng/mL | % HbA1C Mean ([4]; Day 29, 6.078 nM, q2d*15): 6.2 *** % | Insulin (ng/mL) Mean ([4]; Day 29, 6.078 nM, q2d*15): 54.7** ng/mL | HbA1c, blood glucose, food consumption and body weight vs control ([4]; about 3 nM and 6 nM dose): significant reduction | Blood Glucose AUC (Day 30-37) % Change vs Control [4, 7]: −22.39% | Blood Glucose AUC (Day 30-37) (mg/dL*days) Mean [4, 7]: 2787.3* mg/dL*days | Blood Glucose AUC (Day 38-45) % Change vs Control [4, 7]: −7.39% | Blood Glucose AUC (Day 38-45) (mg/dL*days) Mean [4, 7]: 3335.7 mg·days/dL | % HbA1C Mean [4, 8]: 7.6% | Delta HbA1C vs. DC [4, 8]: −0.9 | Insulin (ng/mL) Mean [4, 8]: 30.9 ng/mL | Body Weight % Change vs Day 45 Mean ([4]; recovery study, earlier dose 6.078 nM (6.0788 nM given for Compound 13)): 5.9%
